# Assay results from patent publication US20230278972A1, “SUBSTITUTED HALOALKYL SULFONANILIDE HERBICIDES” (FMC Corporation, priority 2020, published 2023).
# Legend:
# Format in all cases: in vivo
# [1] = tested on: pigweed (Amaranthus retroflexus); test: Test A postemergence, pigweed; details: Postemergence, 0 to 100 scale (0 no effect, 100 complete control); for Plant response rating, Pigweed: 125 g ai/ha; for Pigweed plant response rating: 500 g ai/ha, visual injury vs untreated controls after approx. 10 days
# Method in brief: (§1)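 Pots: loam soil/sand blend. Pre: directed soil spray at planting. Post: plants 2–10 cm, 1–2 leaf stage. Formulation: non-phytotoxic solvent + surfactant.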
# [2] = tested on: pigweed (Amaranthus retroflexus); test: Test A preemergence, pigweed; details: for Plant response rating, Pigweed: 0 to 100 scale (0 no effect, 100 complete control); for Pigweed plant response rating: visual injury on 0 to 100 scale (0 no effect, 100 complete control), approximately 10 days
# Method in brief: (§2)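 Seeds are sown in loam mixed with sand and sprayed on the soil surface right after planting for the preemergence test. Postemergence pots are sprayed once seedlings reach 2 to 10 cm at the one- to two-leaf stage. The same surfactant-containing, non-phytotoxic solvent formulation serves both.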
# [3] = tested on: Ryegrass, Italian (Italian ryegrass, Lolium multiflorum); test: Test A preemergence, Ryegrass, Italian; details: Preemergence; for Plant response rating, Ryegrass, Italian: 0 to 100 scale (0 no effect, 100 complete control); for Ryegrass, Italian plant response rating: visual injury on 0 to 100 scale (0 no effect, 100 complete control), approximately 10 days
# Method in brief: as §1
# [4] = tested on: wheat (Triticum aestivum); test: Test A postemergence, wheat; details: Postemergence, 0 to 100 scale (0 no effect, 100 complete control); for Plant response rating, Wheat: 125 g ai/ha; for Wheat plant response rating: 500 g ai/ha, visual injury vs untreated controls after approx. 10 days
# Method in brief: as §2
# [5] = tested on: galium (catchweed bedstraw, Galium aparine); test: Test A postemergence, galium; details: Postemergence, 0 to 100 scale (0 no effect, 100 complete control); for Plant response rating, Galium: 125 g ai/ha; for Galium plant response rating: 500 g ai/ha, visual injury vs untreated controls after approx. 10 days
# Method in brief: as §2
# [6] = tested on: kochia (Bassia scoparia); test: Test A postemergence, kochia; details: Postemergence, 0 to 100 scale (0 no effect, 100 complete control); for Plant response rating, Kochia: 125 g ai/ha; for Kochia plant response rating: 500 g ai/ha, visual injury vs untreated controls after approx. 10 days
# Method in brief: as §1
# [7] = tested on: Ryegrass, Italian (Italian ryegrass, Lolium multiflorum); test: Test A postemergence, Ryegrass, Italian; details: Postemergence, 0 to 100 scale (0 no effect, 100 complete control); for Plant response rating, Ryegrass, Italian: 125 g ai/ha; for Ryegrass, Italian plant response rating: 500 g ai/ha, visual injury vs untreated controls after approx. 10 days
# Method in brief: as §1
# [8] = tested on: Foxtail, Giant (giant foxtail, Setaria faberi); test: Test A postemergence, Foxtail, Giant; details: Postemergence, 0 to 100 scale (0 no effect, 100 complete control); for Plant response rating, Foxtail, Giant: 125 g ai/ha; for Foxtail, Giant plant response rating: 500 g ai/ha, visual injury vs untreated controls after approx. 10 days
# Method in brief: as §1
# [9] = tested on: kochia (Bassia scoparia); test: Test A preemergence, kochia; details: Preemergence; for Plant response rating, Kochia: 0 to 100 scale (0 no effect, 100 complete control); for Kochia plant response rating: visual injury on 0 to 100 scale (0 no effect, 100 complete control), approximately 10 days
# Method in brief: as §1
# [10] = tested on: corn (Zea mays); test: Test A postemergence, corn; details: Postemergence, 0 to 100 scale (0 no effect, 100 complete control); for Plant response rating, Corn: 125 g ai/ha; for Corn plant response rating: 500 g ai/ha, visual injury vs untreated controls after approx. 10 days
# Method in brief: as §1
# [11] = tested on: blackgrass (Alopecurus myosuroides); test: Test A postemergence, blackgrass; details: Postemergence, 0 to 100 scale (0 no effect, 100 complete control); for Plant response rating, Blackgrass: 125 g ai/ha; for Blackgrass plant response rating: 500 g ai/ha, visual injury vs untreated controls after approx. 10 days
# Method in brief: as §1
# [12] = tested on: barnyardgrass (Echinochloa crus-galli); test: Test A preemergence, barnyardgrass; details: Preemergence; for Plant response rating, Barnyardgrass: 0 to 100 scale (0 no effect, 100 complete control); for Barnyardgrass plant response rating: visual injury on 0 to 100 scale (0 no effect, 100 complete control), approximately 10 days
# Method in brief: as §1
# [13] = tested on: Foxtail, Giant (giant foxtail, Setaria faberi); test: Test A preemergence, Foxtail, Giant; details: Preemergence; for Plant response rating, Foxtail, Giant: 0 to 100 scale (0 no effect, 100 complete control); for Foxtail, Giant plant response rating: visual injury on 0 to 100 scale (0 no effect, 100 complete control), approximately 10 days
# Method in brief: as §1
# [14] = tested on: barnyardgrass (Echinochloa crus-galli); test: Test A postemergence, barnyardgrass; details: Postemergence, 0 to 100 scale (0 no effect, 100 complete control); for Plant response rating, Barnyardgrass: 125 g ai/ha; for Barnyardgrass plant response rating: 500 g ai/ha, visual injury vs untreated controls after approx. 10 days
# Method in brief: as §2
# [15] = tested on: ragweed (common ragweed, Ambrosia artemisiifolia); test: Test A postemergence, ragweed; details: Postemergence, 0 to 100 scale (0 no effect, 100 complete control); for Plant response rating, Ragweed: 125 g ai/ha; for Ragweed plant response rating: 500 g ai/ha, visual injury vs untreated controls after approx. 10 days
# Method in brief: as §1
# [16] = tested on: ragweed (common ragweed, Ambrosia artemisiifolia); test: Test A preemergence, ragweed; details: Preemergence; for Plant response rating, Ragweed: 0 to 100 scale (0 no effect, 100 complete control); for Ragweed plant response rating: visual injury on 0 to 100 scale (0 no effect, 100 complete control), approximately 10 days
# Method in brief: as §1
# [17] = 125 g ai/ha, visual injury, approx. 10 days
Structure (SMILES),Pigweed plant response rating [1],"Plant response rating, Pigweed ([2]; 500 g ai/ha)","Plant response rating, Ryegrass, Italian ([3]; 500 g ai/ha)",Wheat plant response rating [4],Galium plant response rating [5],Kochia plant response rating [6],"Ryegrass, Italian plant response rating [7]","Foxtail, Giant plant response rating [8]","Plant response rating, Kochia ([9]; 500 g ai/ha)",Corn plant response rating [10],Blackgrass plant response rating [11],"Plant response rating, Barnyardgrass ([12]; 500 g ai/ha)","Plant response rating, Foxtail, Giant ([13]; 500 g ai/ha)",Barnyardgrass plant response rating [14],Ragweed plant response rating [15],"Plant response rating, Ragweed ([16]; 500 g ai/ha)","Plant response rating, Pigweed ([1]; visual injury approx. 10 days)",Pigweed plant response rating ([2]; 125 g ai/ha),"Ryegrass, Italian plant response rating ([3]; 125 g ai/ha)","Plant response rating, Wheat ([4]; visual injury approx. 10 days)",further results
Cc1cc(C)c(C(=O)N2CCC3(CC2)OCCCO3)cc1NS(=O)(=O)C(F)(F)F [Compound 194],50,100,100,60,90,40,50,80,90,0,0,90,100,80,90,90,,,,,"Plant response rating, Pigweed [1]: 0; Plant response rating, Pigweed [2, 17]: 90; Plant response rating, Ryegrass, Italian [3, 17]: 30; Plant response rating, Wheat [4]: 0; Plant response rating, Galium [5]: 70; Plant response rating, Kochia [6]: 20; Plant response rating, Ryegrass, Italian [7]: 0; Plant response rating, Foxtail, Giant [8]: 10; Plant response rating, Kochia [9, 17]: 40; Plant response rating, Corn [10]: 0; Plant response rating, Blackgrass [11]: 0; Plant response rating, Barnyardgrass [12, 17]: 90; Plant response rating, Foxtail, Giant [13, 17]: 80; Plant response rating, Barnyardgrass [14]: 0; Plant response rating, Ragweed [15]: 60; Plant response rating, Ragweed [16, 17]: 80"
Cc1cc(C)c(N(S(C)(=O)=O)S(=O)(=O)C(F)(F)F)cc1-c1cc(Cl)nn(C)c1=O [Compound 46],0,50,80,50,0,0,0,0,0,0,0,70,90,0,0,0,0,0,50,0,"Plant response rating, Galium ([5]; visual injury approx. 10 days): 0; Plant response rating, Kochia ([6]; visual injury approx. 10 days): 0; Plant response rating, Ryegrass, Italian ([7]; visual injury approx. 10 days): 0; Plant response rating, Foxtail, Giant ([8]; visual injury approx. 10 days): 0; Kochia plant response rating ([9]; 125 g ai/ha): 0; Plant response rating, Corn ([10]; visual injury approx. 10 days): 0; Plant response rating, Blackgrass ([11]; visual injury approx. 10 days): 0; Barnyardgrass plant response rating ([12]; 125 g ai/ha): 0; Foxtail, Giant plant response rating ([13]; 125 g ai/ha): 90; Plant response rating, Barnyardgrass ([14]; visual injury approx. 10 days): 0; Plant response rating, Ragweed ([15]; visual injury approx. 10 days): 0; Ragweed plant response rating ([16]; 125 g ai/ha): 0"
CCn1nccc(-c2cc(NS(=O)(=O)C(F)(F)F)c(C)cc2F)c1=O [Compound 55],70,90,90,70,90,80,60,90,80,50,20,100,100,40,40,90,20,70,70,20,"Plant response rating, Galium ([5]; visual injury approx. 10 days): 90; Plant response rating, Kochia ([6]; visual injury approx. 10 days): 60; Plant response rating, Ryegrass, Italian ([7]; visual injury approx. 10 days): 50; Plant response rating, Foxtail, Giant ([8]; visual injury approx. 10 days): 20; Kochia plant response rating ([9]; 125 g ai/ha): 80; Plant response rating, Corn ([10]; visual injury approx. 10 days): 0; Plant response rating, Blackgrass ([11]; visual injury approx. 10 days): 0; Barnyardgrass plant response rating ([12]; 125 g ai/ha): 0; Foxtail, Giant plant response rating ([13]; 125 g ai/ha): 60; Plant response rating, Barnyardgrass ([14]; visual injury approx. 10 days): 30; Plant response rating, Ragweed ([15]; visual injury approx. 10 days): 20; Ragweed plant response rating ([16]; 125 g ai/ha): 20"
